Data on 20 compounds can be found in PMC3248976 (Bioorganic & medicinal chemistry letters, 2011).

Molecules are shown by their SMILES.

Holding throughout (format): cell-based
Assay [1] has as its target T1, S1P4-R (human Endothelial Differentiation Gene 6; EDG6) (Homo sapiens, UniProt O95977).
T1 sequence (O95977 1-384): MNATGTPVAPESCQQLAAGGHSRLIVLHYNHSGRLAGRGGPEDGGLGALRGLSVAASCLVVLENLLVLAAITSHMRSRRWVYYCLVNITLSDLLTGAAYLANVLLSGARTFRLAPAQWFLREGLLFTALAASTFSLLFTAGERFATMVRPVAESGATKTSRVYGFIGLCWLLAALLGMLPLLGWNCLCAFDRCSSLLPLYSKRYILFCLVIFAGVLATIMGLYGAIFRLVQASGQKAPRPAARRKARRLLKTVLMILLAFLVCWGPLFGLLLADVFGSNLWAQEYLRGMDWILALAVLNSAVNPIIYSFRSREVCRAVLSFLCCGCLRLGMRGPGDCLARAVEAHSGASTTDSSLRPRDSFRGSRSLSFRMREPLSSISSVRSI
In words: Tango S1P4-BLA U2OS beta-arrestin/beta-lactamase reporter agonist assay. The following applies: for S1P4-R agonist activity in words: concentrations up to 25 μM; for fold more potent than the hit 2 / fold decrease in potency compared to the hit 2: S1P4-R EC50 ratio vs hit 2; for fold less potent than 22p: S1P4-R EC50 ratio vs 22p.

Another assay deals with S1P1-R (Homo sapiens, UniProt P21453). In words: S1P1–3,5-Rs selectivity counter screen, S1P1-R. The following applies: mean of n = 3; NA = not active at concentrations up to 25 μM. In general terms: A counterscreen serves to expose hits that act by an unwanted route or on another target.
The target in a further assay is S1P2-R (Homo sapiens, UniProt O95136). In words: S1P1–3,5-Rs selectivity counter screen, S1P2-R. The following applies: mean of n = 3; NA = not active at concentrations up to 25 μM.
A further assay has as its target S1P3-R (Homo sapiens, UniProt Q99500). In words: S1P1–3,5-Rs selectivity counter screen, S1P3-R. The following applies: mean of n = 3; NA = not active at concentrations up to 25 μM.
For another assay, the target named is S1P5-R (Homo sapiens, UniProt Q9H228). In words: S1P1–3,5-Rs selectivity counter screen, S1P5-R. The following applies: mean of n = 3; NA = not active at concentrations up to 25 μM.
S1P5-R, sequence (Q9H228 whole entry): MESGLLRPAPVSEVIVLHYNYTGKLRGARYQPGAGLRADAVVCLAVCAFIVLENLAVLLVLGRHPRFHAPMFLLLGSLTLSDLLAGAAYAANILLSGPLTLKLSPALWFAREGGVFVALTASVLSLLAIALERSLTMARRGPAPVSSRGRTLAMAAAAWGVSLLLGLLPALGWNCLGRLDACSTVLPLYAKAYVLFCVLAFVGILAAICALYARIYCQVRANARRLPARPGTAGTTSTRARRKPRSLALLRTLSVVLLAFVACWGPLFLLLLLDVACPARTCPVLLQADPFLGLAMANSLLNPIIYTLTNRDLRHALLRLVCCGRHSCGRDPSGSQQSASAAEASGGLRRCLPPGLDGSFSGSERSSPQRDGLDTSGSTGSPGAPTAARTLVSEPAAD

S1P1-R, sequence (P21453 whole entry): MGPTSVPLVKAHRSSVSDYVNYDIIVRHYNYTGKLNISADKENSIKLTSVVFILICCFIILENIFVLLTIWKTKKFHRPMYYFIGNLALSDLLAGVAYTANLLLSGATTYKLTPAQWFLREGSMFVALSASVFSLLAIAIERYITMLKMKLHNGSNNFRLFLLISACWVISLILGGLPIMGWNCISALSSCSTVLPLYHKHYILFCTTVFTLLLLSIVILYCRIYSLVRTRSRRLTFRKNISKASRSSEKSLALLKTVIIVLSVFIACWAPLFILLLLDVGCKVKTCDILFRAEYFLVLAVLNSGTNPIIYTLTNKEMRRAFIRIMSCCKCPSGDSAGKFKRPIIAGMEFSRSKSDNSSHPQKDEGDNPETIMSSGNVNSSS
S1P3-R, sequence (Q99500 whole entry): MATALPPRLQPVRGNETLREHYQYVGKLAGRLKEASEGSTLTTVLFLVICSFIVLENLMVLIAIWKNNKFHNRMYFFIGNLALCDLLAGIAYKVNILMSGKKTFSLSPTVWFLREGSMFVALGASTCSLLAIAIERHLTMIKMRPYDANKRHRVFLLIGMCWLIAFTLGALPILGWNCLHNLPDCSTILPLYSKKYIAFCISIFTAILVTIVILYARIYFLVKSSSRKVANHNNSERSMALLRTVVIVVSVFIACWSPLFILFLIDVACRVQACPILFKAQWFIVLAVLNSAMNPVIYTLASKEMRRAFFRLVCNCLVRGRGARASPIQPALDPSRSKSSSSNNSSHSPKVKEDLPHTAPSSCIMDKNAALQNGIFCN
S1P2-R, sequence (O95136 whole entry): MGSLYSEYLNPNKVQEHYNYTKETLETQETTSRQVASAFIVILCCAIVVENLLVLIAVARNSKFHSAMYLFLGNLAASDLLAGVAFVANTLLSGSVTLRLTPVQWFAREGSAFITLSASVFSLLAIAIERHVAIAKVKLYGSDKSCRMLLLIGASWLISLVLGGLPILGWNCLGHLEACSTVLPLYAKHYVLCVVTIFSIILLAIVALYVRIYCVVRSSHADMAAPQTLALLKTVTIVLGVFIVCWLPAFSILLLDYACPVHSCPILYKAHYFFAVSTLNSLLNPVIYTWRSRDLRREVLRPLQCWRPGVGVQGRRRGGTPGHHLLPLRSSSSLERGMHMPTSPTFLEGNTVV

In the case of `Cc1ccc(OCCOc2ccccc2)c([N+](=O)[O-])n1` [8f], in assay [1], the “S1P4-R agonist activity in words” value is “complete loss of activity”. Same read-out and setting: with `Cc1ccc(OCCCOc2ccc(Cl)cc2Cl)c([N+](=O)[O-])n1` [13a] the entry was “complete loss of activity”. As to `Cc1ccc(OCCOc2ccc(Cl)cc2Cl)c(Br)n1` [22l], the “fold more potent than the hit 2” value in assay [1] stood at 3 fold. Take `OCc1ccc(OCCOc2ccc(Cl)cc2Cl)c(Cl)n1` [22v]: in assay [1] (S1P4-R EC50 ratio vs 22t), the “fold less active than the 2-iodine counterpart 22t” value was 5 fold. Consider `Clc1ccc(OCCOc2ccc(Br)nc2Br)c(Cl)c1` [22n], for which, in assay [1], the “fold more potent than the hit 2” value came to 3 fold. Consider `O=Cc1ccc(OCCOc2ccc(Cl)cc2Cl)c(I)n1` [22u], for which the “fold less potent than 22p” value in assay [1] is on record as 38 fold.

For `Cc1ccc(OCCOc2ccc(Cl)cc2Cl)c([N+](=O)[O-])n1` [compound 2, 3-(2-(2,4-dichlorophenoxy)ethoxy)-6-methyl-2-nitropyridine], on S1P1-R, the “EC50 nM, S1P1-R” value was “no agonistic activity”. Moreover, at S1P2-R, the “EC50 nM, S1P2-R” value is “no agonistic activity”. Besides, the “EC50 nM, S1P3-R” value on S1P3-R is on record as “no agonistic activity”. Also, at S1P5-R, the “EC50 nM, S1P5-R” value is given as “no agonistic activity”. On to `Cc1ccc(OCCCc2ccc(Cl)cc2Cl)c([N+](=O)[O-])n1` [13b], for which the “fold decrease in potency compared to the hit 2” value (shortened to “fold decrease in potency”) in assay [1] is listed as 5–6 fold. As for `Cc1ccc(OCCOc2ccccc2Cl)c([N+](=O)[O-])n1` [8a], the “S1P4-R agonist activity in words” value in assay [1] is reported as “complete loss of activity”. For `Cc1ccc(OCCOc2cc(Cl)cc([N+](=O)[O-])c2)c([N+](=O)[O-])n1` [8q], the “fold decrease in potency” value in assay [1] is listed as 22 fold. On the same count and under the same terms, with `O=[N+]([O-])c1nc(Cl)ccc1OCCOc1ccc(Cl)cc1Cl` [22d] the figure was 2 fold. The same measure, in the same setting: with `Cc1ccc(OCCOc2ccc(Cl)cc2Cl)c([N+](=O)[O-])c1` [22c] the figure was 8 fold; with `O=[N+]([O-])c1ncccc1OCCOc1ccc(Cl)cc1Cl` [22a], 18 fold. Consider `FCc1ccc(OCCOc2ccc(Cl)cc2Cl)c(Cl)n1` [22aa], for which the “fold more potent than the hit 2” value in assay [1] was determined as 3.5 fold. Turning to `Cc1ccc(OCCOc2ccc(Br)cc2C(F)(F)F)c([N+](=O)[O-])n1` [8r], the “fold less potent than 8h” value in assay [1] (S1P4-R EC50 ratio vs 2-chloro analog 8h) came to 3 fold. For `Cc1ccc(OCCOc2ccc(Cl)cc2)c([N+](=O)[O-])n1` [8b], the “S1P4-R agonist activity in words” value in assay [1] is “complete loss of activity”.

Consider `OCc1ccc(OCCOc2ccc(Cl)cc2Cl)c(I)n1` [22t], for which, in assay [1], the “fold less potent than 22p” value stood at 4 fold. As for `Cc1ccc(OC(=O)COc2ccc(Cl)cc2Cl)c([N+](=O)[O-])n1` [13d], the “S1P4-R agonist activity in words” value in assay [1] is “complete loss of activity”. With `Fc1ccc(OCCOc2ccc(Cl)cc2Cl)c(Br)n1` [22o], the “fold less potent than 22l” value in assay [1] (S1P4-R EC50 ratio vs 22l) came to 4 fold. Moreover, the “fold more potent than 22m” value in assay [1] (S1P4-R EC50 ratio vs 22m) came to 6 fold. Take `Cc1ccc(OCCOc2c(Cl)cc(Cl)cc2Cl)c([N+](=O)[O-])n1` [8s]: the “fold decrease in potency” value in assay [1] is 3 fold.
